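These data come from cells grown in 96-well plates and exposed to compound for 48 hours at five concentrations. TGI: concentration producing complete growth inhibition.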
The compounds below were run on 786-0 renal (assay: NCI-60 cell line screen, 48 h).

SMILES	TGI
N#CC1C(=O)NC23CCCCC2C1c1ccccc1O3 (stereo unspecified)	> 100 µM
COc1c(F)c(F)c(/C(O)=C\c2nc3ccccc3[nH]c2=O)c(F)c1F	5.99 µM
CC1=NNC(=O)C1C1CC(c2c[nH]c3ccccc23)=NNC1=O (stereo unspecified)	> 100 µM
CCOC(=O)/C(C=Nc1c(C)n(C)n(-c2ccccc2)c1=O)=C(/C)O	> 100 µM

These compounds were tested on A498 renal (assay: NCI-60 cell line screen, 48 h).

SMILES	TGI
N#CC1C(=O)NC23CCCCC2C1c1ccccc1O3 (stereo unspecified)	> 100 µM
CC1=NNC(=O)C1C1CC(c2c[nH]c3ccccc23)=NNC1=O (stereo unspecified)	> 100 µM
CCOC(=O)/C(C=Nc1c(C)n(C)n(-c2ccccc2)c1=O)=C(/C)O	> 100 µM

What follows are compounds tested on A549 NSCLC (assay: NCI-60 cell line screen, 48 h).

SMILES	TGI
N#CC1C(=O)NC23CCCCC2C1c1ccccc1O3 (stereo unspecified)	> 100 µM
COc1c(F)c(F)c(/C(O)=C\c2nc3ccccc3[nH]c2=O)c(F)c1F	> 10 µM
CC1=NNC(=O)C1C1CC(c2c[nH]c3ccccc23)=NNC1=O (stereo unspecified)	> 100 µM
CCOC(=O)/C(C=Nc1c(C)n(C)n(-c2ccccc2)c1=O)=C(/C)O	> 100 µM

What follows are compounds tested on ACHN renal (assay: NCI-60 cell line screen, 48 h).

SMILES	TGI
N#CC1C(=O)NC23CCCCC2C1c1ccccc1O3 (stereo unspecified)	> 100 µM
CC1=NNC(=O)C1C1CC(c2c[nH]c3ccccc23)=NNC1=O (stereo unspecified)	> 100 µM
CCOC(=O)/C(C=Nc1c(C)n(C)n(-c2ccccc2)c1=O)=C(/C)O	> 100 µM

The compounds below were run on BT-549 breast (assay: NCI-60 cell line screen, 48 h).

SMILES	TGI
N#CC1C(=O)NC23CCCCC2C1c1ccccc1O3 (stereo unspecified)	> 100 µM
CC1=NNC(=O)C1C1CC(c2c[nH]c3ccccc23)=NNC1=O (stereo unspecified)	> 100 µM
CCOC(=O)/C(C=Nc1c(C)n(C)n(-c2ccccc2)c1=O)=C(/C)O	> 100 µM

The compounds below were run on CAKI-1 renal (assay: NCI-60 cell line screen, 48 h).

SMILES	TGI
N#CC1C(=O)NC23CCCCC2C1c1ccccc1O3 (stereo unspecified)	> 100 µM
COc1c(F)c(F)c(/C(O)=C\c2nc3ccccc3[nH]c2=O)c(F)c1F	> 10 µM
CC1=NNC(=O)C1C1CC(c2c[nH]c3ccccc23)=NNC1=O (stereo unspecified)	> 100 µM
CCOC(=O)/C(C=Nc1c(C)n(C)n(-c2ccccc2)c1=O)=C(/C)O	> 100 µM

These compounds were tested on CCRF-CEM leukemia (assay: NCI-60 cell line screen, 48 h).

SMILES	TGI
N#CC1C(=O)NC23CCCCC2C1c1ccccc1O3 (stereo unspecified)	> 100 µM
COc1c(F)c(F)c(/C(O)=C\c2nc3ccccc3[nH]c2=O)c(F)c1F	> 10 µM
CC1=NNC(=O)C1C1CC(c2c[nH]c3ccccc23)=NNC1=O (stereo unspecified)	> 100 µM
CCOC(=O)/C(C=Nc1c(C)n(C)n(-c2ccccc2)c1=O)=C(/C)O	> 100 µM

These compounds were tested on COLO 205 colon (assay: NCI-60 cell line screen, 48 h).

SMILES	TGI
N#CC1C(=O)NC23CCCCC2C1c1ccccc1O3 (stereo unspecified)	> 100 µM
COc1c(F)c(F)c(/C(O)=C\c2nc3ccccc3[nH]c2=O)c(F)c1F	> 10 µM
CC1=NNC(=O)C1C1CC(c2c[nH]c3ccccc23)=NNC1=O (stereo unspecified)	> 100 µM
CCOC(=O)/C(C=Nc1c(C)n(C)n(-c2ccccc2)c1=O)=C(/C)O	> 100 µM

What follows are compounds tested on DU-145 prostate (assay: NCI-60 cell line screen, 48 h).

SMILES	TGI
N#CC1C(=O)NC23CCCCC2C1c1ccccc1O3 (stereo unspecified)	> 100 µM
COc1c(F)c(F)c(/C(O)=C\c2nc3ccccc3[nH]c2=O)c(F)c1F	> 10 µM
CC1=NNC(=O)C1C1CC(c2c[nH]c3ccccc23)=NNC1=O (stereo unspecified)	> 100 µM
CCOC(=O)/C(C=Nc1c(C)n(C)n(-c2ccccc2)c1=O)=C(/C)O	> 100 µM

The compounds below were run on EKVX NSCLC (assay: NCI-60 cell line screen, 48 h).

SMILES	TGI
N#CC1C(=O)NC23CCCCC2C1c1ccccc1O3 (stereo unspecified)	> 100 µM
COc1c(F)c(F)c(/C(O)=C\c2nc3ccccc3[nH]c2=O)c(F)c1F	> 10 µM
CC1=NNC(=O)C1C1CC(c2c[nH]c3ccccc23)=NNC1=O (stereo unspecified)	> 100 µM
CCOC(=O)/C(C=Nc1c(C)n(C)n(-c2ccccc2)c1=O)=C(/C)O	> 100 µM

What follows are compounds tested on HCC-2998 colon (assay: NCI-60 cell line screen, 48 h).

SMILES	TGI
N#CC1C(=O)NC23CCCCC2C1c1ccccc1O3 (stereo unspecified)	> 100 µM
COc1c(F)c(F)c(/C(O)=C\c2nc3ccccc3[nH]c2=O)c(F)c1F	> 10 µM
CCOC(=O)/C(C=Nc1c(C)n(C)n(-c2ccccc2)c1=O)=C(/C)O	> 100 µM

What follows are compounds tested on HCT-116 colon (assay: NCI-60 cell line screen, 48 h).

SMILES	TGI
N#CC1C(=O)NC23CCCCC2C1c1ccccc1O3 (stereo unspecified)	> 100 µM
CC1=NNC(=O)C1C1CC(c2c[nH]c3ccccc23)=NNC1=O (stereo unspecified)	> 100 µM
CCOC(=O)/C(C=Nc1c(C)n(C)n(-c2ccccc2)c1=O)=C(/C)O	> 100 µM

These compounds were tested on HCT-15 colon (assay: NCI-60 cell line screen, 48 h).

SMILES	TGI
N#CC1C(=O)NC23CCCCC2C1c1ccccc1O3 (stereo unspecified)	> 100 µM
COc1c(F)c(F)c(/C(O)=C\c2nc3ccccc3[nH]c2=O)c(F)c1F	> 10 µM
CC1=NNC(=O)C1C1CC(c2c[nH]c3ccccc23)=NNC1=O (stereo unspecified)	> 100 µM
CCOC(=O)/C(C=Nc1c(C)n(C)n(-c2ccccc2)c1=O)=C(/C)O	> 100 µM

The compounds below were run on HL-60(TB) leukemia (assay: NCI-60 cell line screen, 48 h).

SMILES	TGI
N#CC1C(=O)NC23CCCCC2C1c1ccccc1O3 (stereo unspecified)	> 100 µM
COc1c(F)c(F)c(/C(O)=C\c2nc3ccccc3[nH]c2=O)c(F)c1F	> 10 µM
CC1=NNC(=O)C1C1CC(c2c[nH]c3ccccc23)=NNC1=O (stereo unspecified)	> 100 µM
CCOC(=O)/C(C=Nc1c(C)n(C)n(-c2ccccc2)c1=O)=C(/C)O	> 100 µM

What follows are compounds tested on HOP-62 NSCLC (assay: NCI-60 cell line screen, 48 h).

SMILES	TGI
N#CC1C(=O)NC23CCCCC2C1c1ccccc1O3 (stereo unspecified)	> 100 µM
COc1c(F)c(F)c(/C(O)=C\c2nc3ccccc3[nH]c2=O)c(F)c1F	> 10 µM
CC1=NNC(=O)C1C1CC(c2c[nH]c3ccccc23)=NNC1=O (stereo unspecified)	> 100 µM

The compounds below were run on HOP-92 NSCLC (assay: NCI-60 cell line screen, 48 h).

SMILES	TGI
N#CC1C(=O)NC23CCCCC2C1c1ccccc1O3 (stereo unspecified)	> 100 µM
COc1c(F)c(F)c(/C(O)=C\c2nc3ccccc3[nH]c2=O)c(F)c1F	> 10 µM
CC1=NNC(=O)C1C1CC(c2c[nH]c3ccccc23)=NNC1=O (stereo unspecified)	> 100 µM
CCOC(=O)/C(C=Nc1c(C)n(C)n(-c2ccccc2)c1=O)=C(/C)O	> 100 µM

The compounds below were run on HS 578T breast (assay: NCI-60 cell line screen, 48 h).

SMILES	TGI
CC1=NNC(=O)C1C1CC(c2c[nH]c3ccccc23)=NNC1=O (stereo unspecified)	> 100 µM

Each compound was assayed on HT29 colon (assay: NCI-60 cell line screen, 48 h).

SMILES	TGI
N#CC1C(=O)NC23CCCCC2C1c1ccccc1O3 (stereo unspecified)	> 100 µM
COc1c(F)c(F)c(/C(O)=C\c2nc3ccccc3[nH]c2=O)c(F)c1F	> 10 µM
CC1=NNC(=O)C1C1CC(c2c[nH]c3ccccc23)=NNC1=O (stereo unspecified)	> 100 µM

Each compound was assayed on IGROV1 ovarian (assay: NCI-60 cell line screen, 48 h).

SMILES	TGI
N#CC1C(=O)NC23CCCCC2C1c1ccccc1O3 (stereo unspecified)	> 100 µM
COc1c(F)c(F)c(/C(O)=C\c2nc3ccccc3[nH]c2=O)c(F)c1F	> 10 µM
CC1=NNC(=O)C1C1CC(c2c[nH]c3ccccc23)=NNC1=O (stereo unspecified)	> 100 µM
CCOC(=O)/C(C=Nc1c(C)n(C)n(-c2ccccc2)c1=O)=C(/C)O	> 100 µM

What follows are compounds tested on K-562 leukemia (assay: NCI-60 cell line screen, 48 h).

SMILES	TGI
N#CC1C(=O)NC23CCCCC2C1c1ccccc1O3 (stereo unspecified)	> 100 µM
COc1c(F)c(F)c(/C(O)=C\c2nc3ccccc3[nH]c2=O)c(F)c1F	> 10 µM
CC1=NNC(=O)C1C1CC(c2c[nH]c3ccccc23)=NNC1=O (stereo unspecified)	> 100 µM
CCOC(=O)/C(C=Nc1c(C)n(C)n(-c2ccccc2)c1=O)=C(/C)O	> 100 µM

The compounds below were run on KM12 colon (assay: NCI-60 cell line screen, 48 h).

SMILES	TGI
N#CC1C(=O)NC23CCCCC2C1c1ccccc1O3 (stereo unspecified)	> 100 µM
COc1c(F)c(F)c(/C(O)=C\c2nc3ccccc3[nH]c2=O)c(F)c1F	> 10 µM
CC1=NNC(=O)C1C1CC(c2c[nH]c3ccccc23)=NNC1=O (stereo unspecified)	> 100 µM
CCOC(=O)/C(C=Nc1c(C)n(C)n(-c2ccccc2)c1=O)=C(/C)O	> 100 µM

These compounds were tested on LOX IMVI melanoma (assay: NCI-60 cell line screen, 48 h).

SMILES	TGI
N#CC1C(=O)NC23CCCCC2C1c1ccccc1O3 (stereo unspecified)	> 100 µM
COc1c(F)c(F)c(/C(O)=C\c2nc3ccccc3[nH]c2=O)c(F)c1F	8.34 µM
CCOC(=O)/C(C=Nc1c(C)n(C)n(-c2ccccc2)c1=O)=C(/C)O	> 100 µM

The compounds below were run on M14 melanoma (assay: NCI-60 cell line screen, 48 h).

SMILES	TGI
N#CC1C(=O)NC23CCCCC2C1c1ccccc1O3 (stereo unspecified)	> 100 µM
COc1c(F)c(F)c(/C(O)=C\c2nc3ccccc3[nH]c2=O)c(F)c1F	> 10 µM
CC1=NNC(=O)C1C1CC(c2c[nH]c3ccccc23)=NNC1=O (stereo unspecified)	> 100 µM
CCOC(=O)/C(C=Nc1c(C)n(C)n(-c2ccccc2)c1=O)=C(/C)O	> 100 µM

Each compound was assayed on MALME-3M melanoma (assay: NCI-60 cell line screen, 48 h).

SMILES	TGI
N#CC1C(=O)NC23CCCCC2C1c1ccccc1O3 (stereo unspecified)	> 100 µM
COc1c(F)c(F)c(/C(O)=C\c2nc3ccccc3[nH]c2=O)c(F)c1F	> 10 µM
CC1=NNC(=O)C1C1CC(c2c[nH]c3ccccc23)=NNC1=O (stereo unspecified)	> 100 µM
CCOC(=O)/C(C=Nc1c(C)n(C)n(-c2ccccc2)c1=O)=C(/C)O	> 100 µM

Each compound was assayed on MCF7 breast (assay: NCI-60 cell line screen, 48 h).

SMILES	TGI
N#CC1C(=O)NC23CCCCC2C1c1ccccc1O3 (stereo unspecified)	> 100 µM
COc1c(F)c(F)c(/C(O)=C\c2nc3ccccc3[nH]c2=O)c(F)c1F	> 10 µM
CCOC(=O)/C(C=Nc1c(C)n(C)n(-c2ccccc2)c1=O)=C(/C)O	> 100 µM

Each compound was assayed on MDA-MB-231 breast (assay: NCI-60 cell line screen, 48 h).

SMILES	TGI
N#CC1C(=O)NC23CCCCC2C1c1ccccc1O3 (stereo unspecified)	> 100 µM
COc1c(F)c(F)c(/C(O)=C\c2nc3ccccc3[nH]c2=O)c(F)c1F	> 10 µM
CC1=NNC(=O)C1C1CC(c2c[nH]c3ccccc23)=NNC1=O (stereo unspecified)	> 100 µM
CCOC(=O)/C(C=Nc1c(C)n(C)n(-c2ccccc2)c1=O)=C(/C)O	> 100 µM

These compounds were tested on MDA-MB-435 (assay: NCI-60 cell line screen, 48 h).

SMILES	TGI
N#CC1C(=O)NC23CCCCC2C1c1ccccc1O3 (stereo unspecified)	> 100 µM
COc1c(F)c(F)c(/C(O)=C\c2nc3ccccc3[nH]c2=O)c(F)c1F	> 10 µM
CC1=NNC(=O)C1C1CC(c2c[nH]c3ccccc23)=NNC1=O (stereo unspecified)	> 100 µM
CCOC(=O)/C(C=Nc1c(C)n(C)n(-c2ccccc2)c1=O)=C(/C)O	> 100 µM

The compounds below were run on MDA-N (assay: NCI-60 cell line screen, 48 h).

SMILES	TGI
N#CC1C(=O)NC23CCCCC2C1c1ccccc1O3 (stereo unspecified)	> 100 µM
COc1c(F)c(F)c(/C(O)=C\c2nc3ccccc3[nH]c2=O)c(F)c1F	> 10 µM
CC1=NNC(=O)C1C1CC(c2c[nH]c3ccccc23)=NNC1=O (stereo unspecified)	> 100 µM
CCOC(=O)/C(C=Nc1c(C)n(C)n(-c2ccccc2)c1=O)=C(/C)O	> 100 µM

Each compound was assayed on MOLT-4 leukemia (assay: NCI-60 cell line screen, 48 h).

SMILES	TGI
N#CC1C(=O)NC23CCCCC2C1c1ccccc1O3 (stereo unspecified)	> 100 µM

— PubChem BioAssay (NCI)
